This note sets out measurements from ChEMBL document CHEMBL1135444, “Elucidating the inhibiting mode of AHPBA derivatives against HIV-1 protease and building predictive 3D-QSAR models” (J Med Chem, 2002).

Each structure is given as a SMILES string.

The target of this test is Human immunodeficiency virus type 1 protease (Human immunodeficiency virus 1, UniProt Q72874). In words: Inhibitory activity against HIV-1 protease.

As usually defined, the IC50 is the concentration that inhibits the measured activity by half. A higher IC50 goes with a need for much substance. `Cc1cc(O)c(C)c(C(=O)N[C@@H](Cc2ccccc2)[C@H](O)C(=O)N2C[C@@H](Cl)C[C@H]2C(=O)NC(C)(C)C)c1` came in with an IC50 of 1.3 nM. For `COc1cccc(C(=O)N[C@@H](Cc2ccccc2)[C@H](O)C(=O)N2C[C@@H](Cl)C[C@H]2C(=O)NC(C)(C)C)c1O`, the half-maximal inhibitory concentration (IC50) was 1000 nM. On to `Cc1c(O)cccc1C(=O)N[C@@H](Cc1ccccc1)[C@H](O)C(=O)N1C[C@@H](Cl)C[C@H]1C(=O)NC(C)(C)C`, for which the IC50 was 0.8 nM. The molecule `CC(C)(C)NC(=O)[C@@H]1C[C@H](Cl)CN1C(=O)[C@@H](O)[C@H](Cc1ccccc1)NC(=O)c1cccc(O)c1Br` showed an IC50 of 1.5 nM. Under `Cc1cc(O)c(C)c(C(=O)N[C@@H](Cc2cc(F)cc(F)c2)[C@H](O)C(=O)N2C[C@@H](Cl)C[C@H]2C(=O)NC(C)(C)C)c1` stands 1.2 nM. Next, `Cc1c(O)cc(F)cc1C(=O)N[C@@H](Cc1cccc(C(F)(F)F)c1)[C@H](O)C(=O)N1C[C@@H](Cl)C[C@H]1C(=O)NC(C)(C)C`: 2.1 nM; `Cc1ccc(C(=O)N[C@@H](Cc2cccc(C(F)(F)F)c2)[C@H](O)C(=O)N2C[C@@H](Cl)C[C@H]2C(=O)NC(C)(C)C)c(C)c1O`: 3.5 nM; `Cc1ccc(O)c(C)c1C(=O)N[C@@H](Cc1ccc(C(F)(F)F)cc1)[C@H](O)C(=O)N1C[C@@H](Cl)C[C@H]1C(=O)NC(C)(C)C`: 3.9 nM.

With `Cc1ccc(O)c(C)c1C(=O)N[C@@H](Cc1ccccc1)[C@H](O)C(=O)N1C[C@@H](Cl)C[C@H]1C(=O)NC(C)(C)C`, half-maximal inhibition (IC50) was put at 2.5 nM. Compared with the last molecule, the IC50 is about 1.6-fold lower. Take `Cc1cc(O)c(C)c(C(=O)N[C@@H](Cc2ccc3ccccc3c2)[C@H](O)C(=O)N2C[C@@H](Cl)C[C@H]2C(=O)NC(C)(C)C)c1`: half-maximal inhibition (IC50) required 0.8 nM. Turning to `Cc1ccc(C[C@H](NC(=O)c2ccc(C)c(O)c2C)[C@H](O)C(=O)N2C[C@@H](Cl)C[C@H]2C(=O)NC(C)(C)C)cc1`, it took 8.6 nM to reach half-maximal inhibition (IC50).

`Cc1cc(O)c(C)c(C(=O)N[C@@H](Cc2cccc(C(F)(F)F)c2)[C@H](O)C(=O)N2C[C@@H](Cl)C[C@H]2C(=O)NC(C)(C)C)c1` registered an IC50 of 1.9 nM.

Turning to `CC(C)(C)NC(=O)[C@@H]1C[C@H](Cl)CN1C(=O)[C@@H](O)[C@H](Cc1ccccc1)NC(=O)c1ccccc1O`, inhibition was half-maximal at 1000 nM (IC50).

`Cc1ccc(C(=O)N[C@@H](Cc2ccc3ccccc3c2)[C@H](O)C(=O)N2C[C@@H](Cl)C[C@H]2C(=O)NC(C)(C)C)c(C)c1O`: the IC50 was 3.2 nM. In turn, `Cc1cccc(C[C@H](NC(=O)c2ccc(C)c(O)c2C)[C@H](O)C(=O)N2C[C@@H](Cl)C[C@H]2C(=O)NC(C)(C)C)c1` had an IC50 of 2.5 nM. The IC50 values of the last two molecules are within 1.5-fold of each other. Next, `Cc1ccc(C(=O)N[C@@H](Cc2ccc(C(F)(F)F)cc2)[C@H](O)C(=O)N2C[C@@H](Cl)C[C@H]2C(=O)NC(C)(C)C)c(C)c1O`: 6.3 nM; `CC(C)(C)NC(=O)[C@@H]1C[C@H](Cl)CN1C(=O)[C@@H](O)[C@H](Cc1ccccc1)NC(=O)c1ccccc1Cl`: 11 nM; `Cc1ccccc1C[C@H](NC(=O)c1ccc(C)c(O)c1C)[C@H](O)C(=O)N1C[C@@H](Cl)C[C@H]1C(=O)NC(C)(C)C`: 49.9 nM. The molecule `Cc1cccc(C)c1C(=O)N[C@@H](Cc1ccccc1)[C@H](O)C(=O)N1C[C@@H](Cl)C[C@H]1C(=O)NC(C)(C)C` displayed an IC50 of 3.6 nM. For `CC(C)(C)NC(=O)[C@@H]1C[C@H](Cl)CN1C(=O)[C@@H](O)[C@H](Cc1ccccc1)NC(=O)c1ccccc1`, half-maximal inhibition (IC50) required 26 nM. On to `Cc1ccc(C(=O)N[C@@H](Cc2ccccc2)[C@H](O)C(=O)N2C[C@@H](Cl)C[C@H]2C(=O)NC(C)(C)C)c(C)c1O`, for which 8.2 nM corresponded to half-maximal inhibition (IC50). Compared with the last molecule, the IC50 is about 3.2-fold lower. In the case of `Cc1ccc(O)c(C)c1C(=O)N[C@@H](Cc1ccc2ccccc2c1)[C@H](O)C(=O)N1C[C@@H](Cl)C[C@H]1C(=O)NC(C)(C)C`, the IC50 is 2.8 nM. `CC(C)(C)NC(=O)[C@@H]1C[C@H](Cl)CN1C(=O)[C@@H](O)[C@H](Cc1ccccc1)NC(=O)c1ccc(O)cc1` registered an IC50 of 33 nM. Next, `CC(C)(C)NC(=O)[C@@H]1C[C@H](Cl)CN1C(=O)[C@@H](O)[C@H](Cc1ccccc1)NC(=O)c1ccccc1N`: 39 nM; `Cc1c(N)cccc1C(=O)N[C@@H](Cc1ccccc1)[C@H](O)C(=O)N1C[C@@H](Cl)C[C@H]1C(=O)NC(C)(C)C`: 5.4 nM; `Cc1ccc(C[C@H](NC(=O)c2c(C)ccc(O)c2C)[C@H](O)C(=O)N2C[C@@H](Cl)C[C@H]2C(=O)NC(C)(C)C)cc1`: 3.6 nM. On to `Cc1c(O)cc(F)cc1C(=O)N[C@@H](Cc1ccccc1)[C@H](O)C(=O)N1C[C@@H](Cl)C[C@H]1C(=O)NC(C)(C)C`, for which the midpoint of inhibition, the IC50, lay at 1.7 nM. Against the preceding molecule, the IC50 is about 2.1-fold lower.

`Cc1ccc(O)c(C)c1C(=O)N[C@@H](Cc1cccc(C(F)(F)F)c1)[C@H](O)C(=O)N1C[C@@H](Cl)C[C@H]1C(=O)NC(C)(C)C` registered an IC50 of 4.6 nM.

Regarding `CC(C)(C)NC(=O)[C@@H]1C[C@H](Cl)CN1C(=O)[C@@H](O)[C@H](Cc1ccccc1)NC(=O)c1ccccc1Br`, half-maximal inhibition (IC50) required 12 nM. On to `CC(C)(C)NC(=O)[C@@H]1C[C@H](Cl)CN1C(=O)[C@@H](O)[C@H](Cc1ccccc1)NC(=O)c1cccc(O)c1`, for which the IC50 was 9 nM. Regarding `Cc1cccc(C[C@H](NC(=O)c2c(C)ccc(O)c2C)[C@H](O)C(=O)N2C[C@@H](Cl)C[C@H]2C(=O)NC(C)(C)C)c1`, the IC50 was found to be 3.4 nM. `Cc1cccc(C[C@H](NC(=O)c2cc(C)cc(O)c2C)[C@H](O)C(=O)N2C[C@@H](Cl)C[C@H]2C(=O)NC(C)(C)C)c1` showed an IC50 of 1.3 nM. Consider `Cc1ccccc1C[C@H](NC(=O)c1c(C)ccc(O)c1C)[C@H](O)C(=O)N1C[C@@H](Cl)C[C@H]1C(=O)NC(C)(C)C`, for which inhibition was half-maximal at 34.3 nM (IC50). Under `CC(C)(C)NC(=O)[C@@H]1C[C@H](Cl)CN1C(=O)[C@@H](O)[C@H](Cc1ccccc1)NC(=O)c1ccccc1I` stands 14 nM; under `Cc1c(O)cc(F)cc1C(=O)N[C@@H](Cc1ccc2ccccc2c1)[C@H](O)C(=O)N1C[C@@H](Cl)C[C@H]1C(=O)NC(C)(C)C`, 1.2 nM; under `Cc1cc(O)c(C)c(C(=O)N[C@@H](Cc2ccc(-c3ccccc3)cc2)[C@H](O)C(=O)N2C[C@@H](Cl)C[C@H]2C(=O)NC(C)(C)C)c1`, 1.3 nM.
